Four molecules from ChEMBL document CHEMBL4325853, “Design, synthesis and antibacterial evaluation of 2,4-disubstituted-6-thiophenyl-pyrimidines” (Eur J Med Chem, 2019) can be followed below.

Values after ≈ are worked out from the molar mass of the structure shown. Active and inactive are the calls of the source. No cut-off for these calls is given here.

Experiment [1] deals with T1, Cell division protein FtsZ (Staphylococcus aureus) (UniProt P0A031).
T1 sequence (whole entry): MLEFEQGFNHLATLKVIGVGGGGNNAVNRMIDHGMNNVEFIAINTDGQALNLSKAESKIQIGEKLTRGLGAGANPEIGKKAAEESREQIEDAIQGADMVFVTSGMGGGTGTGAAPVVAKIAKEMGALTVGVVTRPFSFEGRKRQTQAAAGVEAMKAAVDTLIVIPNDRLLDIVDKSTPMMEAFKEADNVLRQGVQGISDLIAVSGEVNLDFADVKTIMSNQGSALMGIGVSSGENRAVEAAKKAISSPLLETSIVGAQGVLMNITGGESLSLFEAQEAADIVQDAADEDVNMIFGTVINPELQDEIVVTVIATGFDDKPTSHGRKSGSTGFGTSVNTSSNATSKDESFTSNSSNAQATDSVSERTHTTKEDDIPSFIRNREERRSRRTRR
The experiment can be described thus: Inhibition of recombinant Staphylococcus aureus FtsZ GTPase activity assessed as reduction in inorganic phosphate formation after 30 mins by colorimetric method.

In experiment [2] the test system is Bacillus subtilis. The experiment can be described thus: Antibacterial activity against Bacillus subtilis 168 after 18 hrs by broth microdilution method. The conditions noted are these: subsp. subtilis str. 168, 18 h. Type of experiment: functional.
In experiment [3] the test system is Escherichia coli. The experiment in a line: Antibacterial activity against Escherichia coli ATCC 25922 after 18 hrs by broth microdilution method. Type of experiment: functional. To be noted: ATCC 25922, 18 h.
Experiment [4] relates to Staphylococcus aureus. The experiment in a line: Antibacterial activity against Staphylococcus aureus ATCC 29213 after 18 hrs by broth microdilution method. Type of experiment: functional. To be noted: ATCC 29213, 18 h.
The subject of experiment [5] is Staphylococcus aureus. The experiment can be described thus: Ratio of MIC for Staphylococcus aureus ATCC 29213 after and before 11 to 21 serial passages. Type of experiment: functional.
Experiment [6] relates to Enterococcus faecalis. The experiment can be described thus: Antibacterial activity against Enterococcus faecalis ATCC 29212 after 18 hrs by broth microdilution method. Format: functional. To be noted: ATCC 29212, 18 h.
Experiment [7] concerns Staphylococcus aureus. The experiment can be described thus: Antibacterial activity against Staphylococcus aureus ATCC 29213 after 10 passages by broth microdilution method. Type of experiment: functional, organism-based.
For experiment [8], the system named is Enterococcus faecium. The experiment can be described thus: Antibacterial activity against Enterococcus faecium ATCC 49624 after 18 hrs by broth microdilution method. Format: functional. To be noted: ATCC 49624, 18 h.
Experiment [9] deals with T1, Cell division protein FtsZ (Staphylococcus aureus). The experiment can be described thus: Inhibition of recombinant Staphylococcus aureus FtsZ polymerization at 8 ug/ml by 90 degree light scattering-based fluorescence spectrometric analysis.
Experiment [10] relates to Staphylococcus epidermidis. The experiment in a line: Antibacterial activity against Staphylococcus epidermidis ATCC 12228 after 18 hrs by broth microdilution method. Format: functional. The conditions noted are these: ATCC 12228, 18 h.
Experiment [11] deals with Enterococcus faecalis. The experiment can be described thus: Antibacterial activity against vancomycin-resistant Enterococcus faecalis ATCC 700221 after 18 hrs by broth microdilution method. Type of experiment: functional. The conditions noted are these: ATCC 700221, 18 h.
The test system of experiment [12] is Enterococcus faecalis. The experiment can be described thus: Antibacterial activity against vancomycin-resistant Enterococcus faecalis ATCC 51575 after 18 hrs by broth microdilution method. Format: functional. The conditions noted are these: ATCC 51575, 18 h.
Experiment [13] has as its system Staphylococcus aureus. The experiment in a line: Antibacterial activity against methicillin-resistant Staphylococcus aureus ATCC 33591 after 18 hrs by broth microdilution method. Format: functional. To be noted: ATCC 33591, 18 h.
In experiment [14] the test system is Staphylococcus aureus. The experiment in a line: Antibacterial activity against methicillin-resistant Staphylococcus aureus ATCC BAA41 after 18 hrs by broth microdilution method. The conditions noted are these: ATCC BAA41, 18 h. Type of experiment: functional.
Experiment [15] has as its system Staphylococcus aureus. The experiment in a line: Antibacterial activity against methicillin-resistant Staphylococcus aureus ATCC 33592 after 18 hrs by broth microdilution method. Format: functional. The conditions noted are these: ATCC 33592, 18 h.
The subject of experiment [16] is Staphylococcus aureus. The experiment in a line: Antibacterial activity against methicillin-resistant Staphylococcus aureus ATCC 43300 after 18 hrs by broth microdilution method. Type of experiment: functional. The conditions noted are these: ATCC 43300, 18 h.
Experiment [17] has as its system Staphylococcus aureus. The experiment can be described thus: Antibacterial activity against methicillin-resistant Staphylococcus aureus ATCC BAA1720 after 18 hrs by broth microdilution method. Format: functional. To be noted: ATCC BAA1720, 18 h.
For experiment [18], the system named is Staphylococcus epidermidis. The experiment can be described thus: Potency index, ratio of berberine MIC to test compound MIC for Staphylococcus epidermidis ATCC 12228. Format: functional.
For experiment [19], the system named is Staphylococcus aureus. The experiment in a line: Potency index, ratio of berberine MIC to test compound MIC for Staphylococcus aureus ATCC 29213. Format: functional.
In experiment [20] the test system is Enterococcus faecalis. The experiment can be described thus: Potency index, ratio of berberine MIC to test compound MIC for Enterococcus faecalis ATCC 29212. Format: functional.
For experiment [21], the system named is Enterococcus faecium. The experiment can be described thus: Potency index, ratio of berberine MIC to test compound MIC for Enterococcus faecium ATCC 49624. Format: functional.

As to `Cc1nc(CCN2CCCN(Cc3ccc(C(C)C)cc3)CC2)cc(-c2cccs2)n1`, the inhibition entry in experiment [1] is “Dose-dependent effect”. Besides, the MIC90 in experiment [2] turned out to be 64 µg/mL (≈ 147 µM); in experiment [3], 128 µg/mL (≈ 294 µM); in experiment [4], 32 µg/mL (≈ 73.6 µM); in [6] it was 64 µg/mL (≈ 147 µM); in experiment [8] it was 64 µg/mL (≈ 147 µM); in [10], 32 µg/mL (≈ 73.6 µM). The result in experiment [5] and in experiment [7] was Active. Moreover, the inhibition result in experiment [9] is “Active”.

In the case of `COc1ccc2cc3[n+](cc2c1OC)CCc1cc2c(cc1-3)OCO2` [BERBERINE], the MIC90 in [11] was greater than 192 µg/mL; in [12], greater than 192 µg/mL; in experiment [2] it was 128 µg/mL; in [3], greater than 192 µg/mL; in [4], 128 µg/mL; in experiment [13], 192 µg/mL. Moreover, the MIC90 is greater than 192 µg/mL in [6]; 192 µg/mL in experiment [14]; 192 µg/mL in experiment [15]; greater than 192 µg/mL in experiment [8]; 192 µg/mL in [16]; 192 µg/mL in experiment [17]. The molecule further gave an MIC90 in experiment [10] of 96 µg/mL.

Turning to `Fc1ccc(CN2CCCN(CCc3cc(-c4cccs4)nc(-c4ccncc4)n3)CC2)cc1`, the Ratio in experiment [18], in [19], in [20] and in [21] was 50 - 100 in each case. The MIC90 in experiment [2] was 8 µg/mL (≈ 16.9 µM); in [3] it was greater than 128 µg/mL; in experiment [4], 8 µg/mL (≈ 16.9 µM); in experiment [6], 16 µg/mL (≈ 33.8 µM); in experiment [8], 16 µg/mL (≈ 33.8 µM); in [10] it was 8 µg/mL (≈ 16.9 µM).

In the case of `Brc1ccc(CN2CCCN(CCc3cc(-c4cccs4)nc(-c4ccncc4)n3)CC2)cc1`, the Ratio in experiment [18], in experiment [19], in experiment [20] and in experiment [21] was 50 - 100 throughout. The MIC90 worked out at 4 µg/mL (≈ 7.48 µM) in experiment [2]; 128 µg/mL (≈ 239 µM) in experiment [3]; 4 µg/mL (≈ 7.48 µM) in experiment [4]; 8 µg/mL (≈ 15 µM) in experiment [6]; 8 µg/mL (≈ 15 µM) in experiment [8]; 4 µg/mL (≈ 7.48 µM) in experiment [10].
